Test results reported in ChEMBL document CHEMBL3885881, “DrugMatrix”.

Species on record: Rattus norvegicus
Assay: DrugMatrix - Regimen: Daily Repeat
Format: toxicity, organism-based, Sprague-Dawley
Parameters: regimen Daily Repeat, gender Male, age 6-8 weeks
Settings: in vivo, po, route oral GAVAGE, vehicle .5 % CMC; for ABSOLUTE BASOPHIL / ABSOLUTE EOSINOPHIL / ABSOLUTE LYMPHOCYTE / ABSOLUTE MONOCYTE / ABSOLUTE SEGMENTED NEUTROPHIL / BASOPHIL / EOSINOPHIL / ERYTHROCYTE COUNT / HEMATOCRIT / HEMOGLOBIN / LEUKOCYTE COUNT / LYMPHOCYTE / MEAN CORPUSCULAR HEMOGLOBIN / MEAN CORPUSCULAR HEMOGLOBIN CONCENTRATION / MEAN CORPUSCULAR VOLUME / MONOCYTE / NEUTROPHIL / NUCLEATED RED BLOOD CELLS / PLATELET COUNT: tissue Blood; for ALANINE AMINOTRANSFERASE / ALBUMIN / ALKALINE PHOSPHATASE / ASPARTATE AMINOTRANSFERASE / BLOOD UREA NITROGEN / CARBON DIOXIDE / CHLORIDE / CHOLESTEROL / CREATINE PHOSPHOKINASE / CREATININE / GLUCOSE / LACTATE DEHYDROGENASE / LIPASE / PHOSPHORUS / POTASSIUM / SODIUM / TOTAL BILIRUBIN / TOTAL PROTEIN / URIC ACID: tissue Plasma
[1] = 1200 mg/kg, 120 h, dose level High, time 5 day
[2] = […], 72 h, dose 3.3 mg/Kg, dose level Low, time 3 day
[3] = […], 120 h, dose 3.3 mg/Kg, dose level Low, time 5 day

CCC[C@@H]1C[C@@H](C(=O)N[C@@H]([C@H]2O[C@H](SC)[C@H](O)[C@@H](O)[C@H]2O)[C@@H](C)O)N(C)C1 [LINCOMYCIN]
ABSOLUTE BASOPHIL [1]: 0 CELLS/uL | ABSOLUTE EOSINOPHIL [1]: 0 CELLS/uL | ABSOLUTE LYMPHOCYTE [1]: 15154 CELLS/uL | ABSOLUTE MONOCYTE [1]: 0 CELLS/uL | ABSOLUTE SEGMENTED NEUTROPHIL [1]: 1379.33 CELLS/uL | BASOPHIL [1]: 0% | EOSINOPHIL [1]: 0% | ERYTHROCYTE COUNT [1]: 5.63 x10E6/uL | HEMATOCRIT [1]: 35.37% | HEMOGLOBIN [1]: 14.33 G/DL | LEUKOCYTE COUNT [1]: 16.53 x10E3/uL | LYMPHOCYTE [1]: 91.67% | MEAN CORPUSCULAR HEMOGLOBIN [1]: 25.5 pg | MEAN CORPUSCULAR HEMOGLOBIN CONCENTRATION [1]: 40.53 G/DL | MEAN CORPUSCULAR VOLUME [1]: 62.9 fL | MONOCYTE [1]: 0% | NEUTROPHIL [1]: 8.33% | NUCLEATED RED BLOOD CELLS [1]: 0 /100WBC | PLATELET COUNT [1]: 1331 x10E3/uL | ALANINE AMINOTRANSFERASE [1]: 58.33 u/L | ALBUMIN [1]: 4.13 G/DL | ALKALINE PHOSPHATASE [1]: 343.67 u/L | ASPARTATE AMINOTRANSFERASE [1]: 92.33 u/L | BLOOD UREA NITROGEN [1]: 18.33 mg/dL | CARBON DIOXIDE [1]: 25 mmol/L | CHLORIDE [1]: 100.67 MEQ/L | CHOLESTEROL [1]: 73.67 mg/dL | CREATINE PHOSPHOKINASE [1]: 558 u/L | CREATININE [1]: 0.27 mg/dL | GLUCOSE [1]: 137 mg/dL | LACTATE DEHYDROGENASE [1]: 505.33 u/L | LIPASE [1]: 12 u/L | PHOSPHORUS [1]: 12.77 mg/dL | POTASSIUM [1]: 6.92 MEQ/L | SODIUM [1]: 143.1 MEQ/L | TOTAL BILIRUBIN [1]: 0.17 mg/dL | TOTAL PROTEIN [1]: 6.1 G/DL | URIC ACID [1]: 1.63 mg/dL | ABSOLUTE BASOPHIL [2]: 0 CELLS/uL | ABSOLUTE EOSINOPHIL [2]: 46 CELLS/uL | ABSOLUTE LYMPHOCYTE [2]: 14091.33 CELLS/uL | ABSOLUTE MONOCYTE [2]: 108.67 CELLS/uL | ABSOLUTE SEGMENTED NEUTROPHIL [2]: 1220.67 CELLS/uL | BASOPHIL [2]: 0% | EOSINOPHIL [2]: 0.33% | ERYTHROCYTE COUNT [2]: 5.49 x10E6/uL | HEMATOCRIT [2]: 34.5% | HEMOGLOBIN [2]: 13.93 G/DL | LEUKOCYTE COUNT [2]: 15.47 x10E3/uL | LYMPHOCYTE [2]: 91% | MEAN CORPUSCULAR HEMOGLOBIN [2]: 25.43 pg | MEAN CORPUSCULAR HEMOGLOBIN CONCENTRATION [2]: 40.4 G/DL | MEAN CORPUSCULAR VOLUME [2]: 63 fL | MONOCYTE [2]: 0.67% | NEUTROPHIL [2]: 8% | NUCLEATED RED BLOOD CELLS [2]: 0 /100WBC | PLATELET COUNT [2]: 1331.67 x10E3/uL | ALANINE AMINOTRANSFERASE [2]: 53.67 u/L | ALBUMIN [2]: 4.23 G/DL | ALKALINE PHOSPHATASE [2]: 358.67 u/L | ASPARTATE AMINOTRANSFERASE [2]: 85.33 u/L | BLOOD UREA NITROGEN [2]: 15.67 mg/dL | CARBON DIOXIDE [2]: 29.67 mmol/L | CHLORIDE [2]: 101 MEQ/L | CHOLESTEROL [2]: 72 mg/dL | CREATINE PHOSPHOKINASE [2]: 274.33 u/L | CREATININE [2]: 0.21 mg/dL | GLUCOSE [2]: 154.67 mg/dL | LACTATE DEHYDROGENASE [2]: 216.67 u/L | LIPASE [2]: 9.67 u/L | PHOSPHORUS [2]: 12.97 mg/dL | POTASSIUM [2]: 7.32 MEQ/L | SODIUM [2]: 144.13 MEQ/L | TOTAL BILIRUBIN [2]: 0.2 mg/dL | TOTAL PROTEIN [2]: 5.83 G/DL | URIC ACID [2]: 2.13 mg/dL | ABSOLUTE BASOPHIL [3]: 0 CELLS/uL | ABSOLUTE EOSINOPHIL [3]: 0 CELLS/uL | ABSOLUTE LYMPHOCYTE [3]: 14059.67 CELLS/uL | ABSOLUTE MONOCYTE [3]: 0 CELLS/uL | ABSOLUTE SEGMENTED NEUTROPHIL [3]: 1173.67 CELLS/uL | BASOPHIL [3]: 0% | EOSINOPHIL [3]: 0% | ERYTHROCYTE COUNT [3]: 5.56 x10E6/uL | HEMATOCRIT [3]: 34.53% | HEMOGLOBIN [3]: 13.97 G/DL | LEUKOCYTE COUNT [3]: 15.23 x10E3/uL | LYMPHOCYTE [3]: 92.33% | MEAN CORPUSCULAR HEMOGLOBIN [3]: 25.1 pg | MEAN CORPUSCULAR HEMOGLOBIN CONCENTRATION [3]: 40.43 G/DL | MEAN CORPUSCULAR VOLUME [3]: 62.13 fL | MONOCYTE [3]: 0% | NEUTROPHIL [3]: 7.67% | NUCLEATED RED BLOOD CELLS [3]: 0 /100WBC | PLATELET COUNT [3]: 1194.33 x10E3/uL | ALANINE AMINOTRANSFERASE [3]: 57.33 u/L | ALBUMIN [3]: 4.37 G/DL | ALKALINE PHOSPHATASE [3]: 326 u/L | ASPARTATE AMINOTRANSFERASE [3]: 107.67 u/L | BLOOD UREA NITROGEN [3]: 17 mg/dL | CARBON DIOXIDE [3]: 28 mmol/L | CHLORIDE [3]: 100.33 MEQ/L | CHOLESTEROL [3]: 76.67 mg/dL | CREATINE PHOSPHOKINASE [3]: 786.33 u/L | CREATININE [3]: 0.23 mg/dL | GLUCOSE [3]: 160.67 mg/dL | LACTATE DEHYDROGENASE [3]: 134.33 u/L | LIPASE [3]: 9 u/L | PHOSPHORUS [3]: 12.5 mg/dL | POTASSIUM [3]: 6.98 MEQ/L | SODIUM [3]: 144.77 MEQ/L | TOTAL BILIRUBIN [3]: 0.17 mg/dL | TOTAL PROTEIN [3]: 6.33 G/DL | URIC ACID [3]: 2.3 mg/dL
